Source: patent publication US20200023073A1, “A NEW DRUG DELIVERY SYSTEM FOR TREATMENT OF DISEASE” (SINTEF TTO AS, priority 2016, published 2020)

Test system: MDA-MB-231 cells
Experiment: AlamarBlue Cell Viability Assay
Format: cell-based, human
Conditions: MDA-MB-231, various concentrations, 24, 48 and 72 hours
Procedure: The cytotoxic effect of empty PBCA NPs, PBCA NPs with encapsulated cabazitaxel as well as free cabazitaxel was studied on breast cancer cells (MDA-MB-231 cells=human epithelial, mammary adenocarcinoma cell line). AlamarBlueR Cell Viability Assay was used to evaluate cell viability. Cells were seeded in density 5000 cells/200 μl medium for each well. After 3 days old medium was removed from wells and both encapsulated cabazitaxel and free cabazitaxel was diluted in medium and added to the well. Concentration of NPs was ranged from 0.1 ng/ml to 1000 ng/ml. Concentrations of free cabazitaxel was chosen to match the concentrations of cabazitaxel in NPs. Control wells contained cells in growth medium.
The well plates were incubated for 24, 48 and 72 hours at 37° C. and 5% CO2, before the medium was removed from the well followed by 3 times washing with fresh growth medium. Growth medium containing 10% of alamar Blue assay was added into each well and the plates incubated for another 3 hours at 37° C. and 5% CO2, and the fluorescence intensity measured by microplate reader (excitation/emission at 550/590 nm).

CO[C@H]1C(=O)[C@]2(C)[C@@H](OC)C[C@H]3OC[C@@]3(OC(C)=O)[C@H]2[C@H](OC(=O)c2ccccc2)[C@]2(O)C[C@H](OC(=O)[C@H](O)[C@@H](NC(=O)OC(C)(C)C)c3ccccc3)C(C)=C1C2(C)C [free cabazitaxel, cabazitaxel]
response of cell viability to treatment: dose-responsive manner
